± gives the standard deviation of the averaged measurements. Values belong to the compound of their own block, whether it stands above or below them.
Assay: TIMS collisional cross section (CCS, N2) of the lipid ion; higher = larger ion cross section
Conditions: ionization mode: negative, one isomer drawn
Experimental: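 Lipid extracts of human plasma (NIST SRM 1950), mouse liver or HeLa cells were separated by nanoflow C18 LC (30 min gradient) and analysed by TIMS-PASEF on a timsTOF Pro. Ion mobility was calibrated with the Agilent tuning mix (negative mode ions) and converted to collisional cross sections (Mason–Schamp, N2).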
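Further: lipids from MTBE extraction, five replicate injections per sample, 100 ms TIMS ramp spanning 0.6–1.95 Vs/cm², lipid identity assigned from PASEF MS/MS spectra.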

Compound: CCCCC/C=C\C/C=C\C/C=C\C/C=C\CCCC(=O)O[C@H](COC(=O)CCCCCCCCCCCCCCCCC)COP(=O)([O-])OCC[N+](C)(C)C [PC 18:0_20:4]
TIMS collisional cross section (sample type: Human plasma, ion (formula + adduct): [C46H84NO8P+HCOO] 1-): 299.5 Å² | TIMS collisional cross section (sample type: Mouse Liver, ion (formula + adduct): [C46H84NO8P+HCOO] 1-): 299.5 ± 0.85 Å² | TIMS collisional cross section (sample type: Mouse Liver, ion (formula + adduct): [C46H84NO8P-CH3] 1-): 282.4 Å²

TIMS collisional cross section (sample type: Mouse Liver, ion (formula + adduct): [C45H82NO7P-H] 1-): 281.9 Å²
Compound: CCCCC/C=C\C/C=C\C/C=C\C/C=C\CCCCCC(=O)O[C@H](CO/C=C\CCCCCCCCCCCCCCCC)COP(=O)(O)OCCN [PE P- 18:0_22:4]

TIMS collisional cross section (sample type: Mouse Liver, ion (formula + adduct): [C47H78NO8P-H] 1-): 283.4 Å²
Compound: CC/C=C\C/C=C\C/C=C\C/C=C\C/C=C\C/C=C\CCC(=O)O[C@H](COC(=O)CCCCCCCCC/C=C\C/C=C\CCCCC)COP(=O)(O)OCCN [PE 20:2_22:6]

TIMS collisional cross section (sample type: Mouse Liver, ion (formula + adduct): [C46H80NO8P-CH3] 1-): 281.3 Å²
Compound: CC/C=C\C/C=C\C/C=C\C/C=C\C/C=C\C/C=C\CCC(=O)O[C@H](COC(=O)CCCCCCCCCCCCCCC)COP(=O)([O-])OCC[N+](C)(C)C [PC 16:0@_22:6]

TIMS collisional cross section (sample type: Human plasma, ion (formula + adduct): [C44H78NO8P+HCOO] 1-): 292.7 Å² | TIMS collisional cross section (sample type: Mouse Liver, ion (formula + adduct): [C44H78NO8P-CH3] 1-): 275.6 Å²
Compound: CC/C=C\C/C=C\C/C=C\C/C=C\C/C=C\CCCC(=O)O[C@H](COC(=O)CCCCCCCCCCCCCCC)COP(=O)([O-])OCC[N+](C)(C)C [PC 16:0_20:5]

TIMS collisional cross section (sample type: Human plasma, ion (formula + adduct): [C43H78NO8P+OAcO] 1-): 295.5 Å² | TIMS collisional cross section (sample type: Mouse Liver, ion (formula + adduct): [C43H78NO8P-H] 1-): 285.5 ± 12 Å²
Compound: CCCCC/C=C\C/C=C\C/C=C\C/C=C\CCCC(=O)O[C@H](COC(=O)CCCCCCCCCCCCCC)COP(=O)([O-])OCC[N+](C)(C)C [PC 15:0@_20:4]

TIMS collisional cross section (sample type: Human plasma, ion (formula + adduct): [C42H84NO8P+HCOO] 1-): 293.4 Å² | TIMS collisional cross section (sample type: Mouse Liver, ion (formula + adduct): [C42H84NO8P+AcO] 1-): 299.1 Å² | TIMS collisional cross section (sample type: Mouse Liver, ion (formula + adduct): [C42H84NO8P+HCOO] 1-): 293.4 Å²
Compound: CCCCCCCCCCCCCCCCCC(=O)O[C@H](COC(=O)CCCCCCCCCCCCCCC)COP(=O)([O-])OCC[N+](C)(C)C [PC 16:0_18:0]

TIMS collisional cross section (sample type: Mouse Liver, ion (formula + adduct): [C44H76NO8P-H] 1-): 277.87 ± 0.55 Å²
Compound: CC/C=C\C/C=C\C/C=C\C/C=C\C/C=C\C/C=C\CCC(=O)O[C@H](COC(=O)CCCCCCCCCCCCC)COP(=O)([O-])OCC[N+](C)(C)C [PC 14:0@_22:6]

TIMS collisional cross section (sample type: Human plasma, ion (formula + adduct): [C37H75N2O6P+HCOO] 1-): 280.6 Å²
Compound: CCCCCCCCCCCCC/C=C/[C@@H](O)[C@H](COP(=O)([O-])OCC[N+](C)(C)C)NC(=O)CCCCCCCCCCCCC [SM d18:1_14:0@]

TIMS collisional cross section (sample type: Mouse Liver, ion (formula + adduct): [C45H82NO8P-H] 1-): 281.8 Å²
Compound: CCCCC/C=C\C/C=C\C/C=C\C/C=C\CCCC(=O)OC[C@H](COP(=O)(O)OCCN)OC(=O)CCCCCCCCCCCCCCCCCCC [PE 20:4_20:0]

TIMS collisional cross section (sample type: Mouse Liver, ion (formula + adduct): [C44H77O10P-H] 1-): 285.3 Å²
Compound: CCCCC/C=C\C/C=C\C/C=C\C/C=C\CCCC(=O)OC[C@H](COP(=O)(O)OC[C@@H](O)CO)OC(=O)CCCCCCC/C=C\CCCCCCCC [PG 20:4_18:1@]

TIMS collisional cross section (sample type: Human plasma, ion (formula + adduct): [C30H50NO7P+HCOO] 1-): 246.7 ± 0.42 Å² | TIMS collisional cross section (sample type: Human plasma, ion (formula + adduct): [C30H50NO7P-CH3] 1-): 230.4 Å² | TIMS collisional cross section (sample type: Mouse Liver, ion (formula + adduct): [C30H50NO7P+HCOO] 1-): 247 Å²
Compound: CC/C=C\C/C=C\C/C=C\C/C=C\C/C=C\C/C=C\CCC(=O)OC[C@@H](O)COP(=O)([O-])OCC[N+](C)(C)C [LPC 22:6_0:0]

TIMS collisional cross section (sample type: Human plasma, ion (formula + adduct): [C22H45O9P-H] 1-): 216.9 Å²
Compound: CCCCCCCCCCCCCCCC(=O)OC[C@@H](O)COP(=O)(O)OC[C@@H](O)CO [LPG 16:0_0:0]

TIMS collisional cross section (sample type: Human plasma, ion (formula + adduct): [C41H80NO8P+HCOO] 1-): 288.8 Å²
Compound: CCCCCC/C=C\CCCCCCCCCC(=O)O[C@H](COC(=O)CCCCCCCCCCCCCC)COP(=O)([O-])OCC[N+](C)(C)C [PC 15:0_18:1]

TIMS collisional cross section (sample type: Mouse Liver, ion (formula + adduct): [C43H84NO8P-H] 1-): 282 Å²
Compound: CCCCCCCC/C=C\CCCCCCCCCC(=O)O[C@H](COC(=O)CCCCCCCCCCCCCCCCC)COP(=O)(O)OCCN [PE 18:0_20:1]

TIMS collisional cross section (sample type: Human plasma, ion (formula + adduct): [C41H76NO7P-H] 1-): 271.2 Å² | TIMS collisional cross section (sample type: Mouse Liver, ion (formula + adduct): [C41H76NO7P-H] 1-): 271.2 Å²
Compound: CCCCC/C=C\C/C=C\C/C=C\CCCCCCC(=O)O[C@H](CO/C=C\CCCCCCCCCCCCCC)COP(=O)(O)OCCN [PE P- 16:0@_20:3]

TIMS collisional cross section (sample type: Mouse Liver, ion (formula + adduct): [C42H76NO8P+HCOO] 1-): 287.6 Å²
Compound: CC/C=C\C/C=C\C/C=C\C/C=C\CCCCC(=O)O[C@H](COC(=O)CCCCCCCCCCCCCCC)COP(=O)([O-])OCC[N+](C)(C)C [PC 16:0@_18:4]

TIMS collisional cross section (sample type: Mouse Liver, ion (formula + adduct): [C46H78NO8P+HCOO] 1-): 296 Å² | TIMS collisional cross section (sample type: Mouse Liver, ion (formula + adduct): [C46H78NO8P-CH3] 1-): 277.2 Å²
Compound: CCCCC/C=C\C/C=C\C/C=C\C/C=C\CCCC(=O)O[C@H](COC(=O)CCCC/C=C\C/C=C\C/C=C\CCCCC)COP(=O)([O-])OCC[N+](C)(C)C [PC 18:3@_20:4]

TIMS collisional cross section (sample type: Mouse Liver, ion (formula + adduct): [C30H60NO8P+HCOO] 1-): 248.5 Å²
Compound: CCCCCCCCCCCCCCCCCC(=O)O[C@H](COC(=O)CCC)COP(=O)([O-])OCC[N+](C)(C)C [PC 4:0@_18:0]

TIMS collisional cross section (sample type: Human plasma, ion (formula + adduct): [C37H64O5+HCOO] 1-): 256.2 Å²
Compound: CCCCC/C=C\C/C=C\C/C=C\C/C=C\CCCC(=O)O[C@@H](CO)COC(=O)CCCCCCCCCCCCC [DG 14:0@_20:4_0:0]

TIMS collisional cross section (sample type: Mouse Liver, ion (formula + adduct): [C45H86NO8P+HCOO] 1-): 299 Å²
Compound: CCCCC/C=C\C/C=C\CCCCCCCC(=O)OC[C@H](COP(=O)([O-])OCC[N+](C)(C)C)OC(=O)CCCCCCCCCCCCCCCCCC [PC 18:2_19:0]

TIMS collisional cross section (sample type: Mouse Liver, ion (formula + adduct): [C81H142O17P2-H] 2-): 411.8 Å²
Compound: CCCCC/C=C\C/C=C\CCCCCCCC(=O)OC[C@H](COP(=O)(O)OCC(O)COP(=O)(O)OC[C@@H](COC(=O)CCCCCCC/C=C\C/C=C\CCCCC)OC(=O)CCCCCCC/C=C\C/C=C\CCCCC)OC(=O)CCCCCCC/C=C\C/C=C\CCCCC (some centres not stated) [CL 18:2_18:2_18:2_18:2]

TIMS collisional cross section (sample type: Mouse Liver, ion (formula + adduct): [C50H88NO8P+HCOO] 1-): 308.5 Å²
Compound: CC/C=C\C/C=C\C/C=C\C/C=C\C/C=C\C/C=C\CCC(=O)O[C@H](COC(=O)CCCCCCCCCCCCCCCCCCC)COP(=O)([O-])OCC[N+](C)(C)C [PC 20:0@_22:6]

TIMS collisional cross section (sample type: Mouse Liver, ion (formula + adduct): [C42H80NO10P-H] 1-): 284.2 Å²
Compound: CCCCCCCC/C=C\CCCCCCCC(=O)OC[C@H](COP(=O)(O)OC[C@H](N)C(=O)O)OC(=O)CCCCCCCCCCCCCCCCC [PS 18:1_18:0]

TIMS collisional cross section (sample type: Human plasma, ion (formula + adduct): [C26H56NO6P+HCOO] 1-): 243.4 Å²
Compound: CCCCCCCCCCCCCCCCCCOCC(O)COP(=O)([O-])OCC[N+](C)(C)C (configuration not stated) [LPC O- 18:0]

TIMS collisional cross section (sample type: Mouse Liver, ion (formula + adduct): [C38H74NO8P+HCOO] 1-): 280.9 Å²
Compound: CCCCCC/C=C\CCCCCCCC(=O)O[C@H](COC(=O)CCCCCCCCCCCCC)COP(=O)([O-])OCC[N+](C)(C)C [PC 14:0@_16:1]

TIMS collisional cross section (sample type: Human plasma, ion (formula + adduct): [C46H82NO8P+HCOO] 1-): 299.2 Å²
Compound: CCCCC/C=C\C/C=C\C/C=C\CCCCCCC(=O)O[C@H](COC(=O)CCCCCCC/C=C\C/C=C\CCCCC)COP(=O)([O-])OCC[N+](C)(C)C [PC 18:2_20:3]

TIMS collisional cross section (sample type: Human plasma, ion (formula + adduct): [C43H76NO8P-H] 1-): 279.7 Å²
Compound: CCCCC/C=C\C[C@H](O)/C=C/C=C\C/C=C\CCCC(=O)O[C@H](CO/C=C\CCCCCC/C=C\CCCCCCCC)COP(=O)(O)OCCN [Oxidized PE 18:1@_20:4]

TIMS collisional cross section (sample type: Human plasma, ion (formula + adduct): [C25H42NO7P-H] 1-): 216.7 Å² | TIMS collisional cross section (sample type: Mouse Liver, ion (formula + adduct): [C25H42NO7P-H] 1-): 216.7 Å²
Compound: CC/C=C\C/C=C\C/C=C\C/C=C\C/C=C\CCCC(=O)OC[C@@H](O)COP(=O)(O)OCCN [LPE 20:5_0:0]

TIMS collisional cross section (sample type: Mouse Liver, ion (formula + adduct): [C41H76NO8P-H] 1-): 271.1 Å²
Compound: CCCCC/C=C\C/C=C\C/C=C\CCCCCCC(=O)OC[C@H](COP(=O)(O)OCCN)OC(=O)CCCCCCCCCCCCCCC [PE 20:3_16:0]

TIMS collisional cross section (sample type: Human plasma, ion (formula + adduct): [C23H48NO6P-H] 1-): 218.6 ± 2.1 Å²
Compound: CCCCCCCC/C=C\CCCCCCCCOC[C@@H](O)COP(=O)(O)OCCN [LPE O- 18:1_0:0]

Reference: the supplement of paper PMC6965134
